Measured values reported in paper PMC6792352, “Limited Chemical Structural Diversity Found to Modulate Thyroid Hormone Receptor in the Tox21 Chemical Library” (Environmental Health Perspectives, 2019).
Structures can show the parent of a compound that is named as a salt.

Assay: in vitro
Details: rat, gh3-tre-luc cells

Structure (SMILES) | CC50 at 24 h (AC50 (uM) modified / 1000) [µM] | also measured
CC(C)CON=O [Isobutyl nitrite] | – | CC50 at 24 h (AC50 (uM) modified / 1000, Tox21_110001=Tox21_202411, viability, 1 nM T3 present, 24 h): > 90 µM; CC50 at 24 h (AC50 (uM) modified / 1000, Tox21_110001=Tox21_302863, viability, 1 nM T3 present, 24 h): > 30 µM
CC(C)COC(=O)c1ccccc1O [Isobutyl salicylate] | > 90 | –
CC(C)Cc1ccccc1 [Isobutylbenzene] | > 90 | –
CC(C)COC(=O)c1ccc(O)cc1 [Isobutylparaben] | > 90 | –
CC(C)C(=O)OC(=O)C(C)C [Isobutyric anhydride] | > 90 | –
CC(C)COC(=O)c1ccc(N)cc1 [Isocaine] | > 50 | –
COP(N)(=S)Oc1ccccc1C(=O)OC(C)C (centres unmarked) [Isocarbophos] | – | CC50 at 24 h (AC50 (uM) modified / 1000, Tox21_110001=Tox21_301328, viability, 1 nM T3 present, 24 h): > 90 µM
Cc1cc(C(=O)NNCc2ccccc2)no1 [Isocarboxazid] | > 20 | –
CCCCCCCCCCCCCCCCCC(=O)OCCCCCCCCCCCCCC(C)C [Isocetyl stearate] | > 90 | –
Clc1ccc(C(Cn2ccnc2)OCc2c(Cl)cccc2Cl)c(Cl)c1 (centres unmarked) [Isoconazole] | 13.8 | –
O=C=NC1CCCCC1 [Isocyanatocyclohexane] | – | CC50 at 24 h (AC50 (uM) modified / 1000, Tox21_110001=Tox21_200234, viability, 1 nM T3 present, 24 h): > 90 µM
CC(=O)C1(C)CC2=C(CCCC2(C)C)CC1C (centres unmarked) [Isocyclemone E] | > 90 | –
CC1=CC(C)C(C=O)C(C)C1 (centres unmarked) [Isocyclocitral] | > 90 | –
C=CC(=O)OCCCCCCCC(C)C [Isodecyl acrylate] | > 90 | –
CC(C)CCCCCCCOP(=O)(Oc1ccccc1)Oc1ccccc1 [Isodecyl diphenyl phosphate] | 27.3 | –
C=C(C)C(=O)OCCCCCCCC(C)C [Isodecyl methacrylate] | > 90 | –
ClC1=C(Cl)[C@]2(Cl)[C@H]3[C@H]([C@H]4C=C[C@@H]3C4)[C@@]1(Cl)C2(Cl)Cl [Isodrin] | – | CC50 at 24 h (AC50 (uM) modified / 1000, Tox21_110001=Tox21_301429, viability, 1 nM T3 present, 24 h): 66.4 µM
CCC(NC(C)C)C(O)c1ccc(O)c(O)c1 (centres unmarked) [Isoetharine mesylate] | > 50 | –
C/C=C/c1ccc(O)c(OC)c1 [Isoeugenol] | > 90 | –
CCOP(=S)(NC(C)C)Oc1ccccc1C(=O)OC(C)C (centres unmarked) [Isofenphos] | – | CC50 at 24 h (AC50 (uM) modified / 1000, Tox21_110001=Tox21_302219, viability, 1 nM T3 present, 24 h): 78.7 µM
CC(=O)OCC(=O)[C@@]1(O)CC[C@H]2[C@@H]3CCC4=CC(=O)C=C[C@]4(C)[C@@]3(F)[C@@H](O)C[C@@]21C [Isoflupredone acetate] | > 20 | –

Structure (SMILES) | CC50 at 24 h (AC50 (uM) modified / 1000) [µM] | also measured
FC(F)OC(Cl)C(F)(F)F (centres unmarked) [Isoflurane] | > 90 | –
CC1(C)C2C(=O)CCC(C)(C)[C@]23CC[C@H]1C3 (some centres unmarked) [Isolongifolanone] | > 90 | –
OCC(O)[C@@H](O)[C@H](O)[C@H](O)CO[C@H]1O[C@H](CO)[C@@H](O)[C@H](O)[C@H]1O (some centres unmarked) [Isomalt] | > 90 | –
CNC(C)CCC=C(C)C (centres unmarked) [Isometheptene hydrochloride] | > 50 | –
NC(=O)c1ccncc1 [Isonicotinamide] | > 100 | –
O=C(O)c1ccncc1 [Isonicotinic acid] | > 90 | –
CC(C)CCCCCCN [Isononanamine] | > 90 | –
CC(C)CCCCCCCCCCCCCCC(=O)O [Isooctadecanoic acid] | > 90 | –
CC(C)CCCCCOC(=O)CS [Isooctyl 2-mercaptoacetate] | > 90 | –
CC(C)CCCCCOC(=O)CCS [Isooctyl 3-mercaptopropionate] | > 90 | –
C=CC(=O)OCCCCCC(C)C [Isooctyl acrylate] | > 100 | –
CC(C)CCO [Isopentyl alcohol] | > 90 | –
CC(C)CCOC(=O)c1ccccc1 [Isopentyl benzoate] | > 90 | –
CCCC(=O)OCCC(C)C [Isopentyl butyrate] | > 90 | –
CC1(C)CC(N)CC(C)(CN)C1 (centres unmarked) [Isophorone diamine] | > 90 | –
CC1(C)CC(N=C=O)CC(C)(CN=C=O)C1 (centres unmarked) [Isophorone diisocyanate] | > 90 | –
CC1=CC(=O)CC(C)(C)C1 [Isophorone] | > 90 | –
C=CC(C)(O)CCCC(C)CCCC(C)CCCC(C)C (centres unmarked) [Isophytol] | > 90 | –
C=CC(=C)C [Isoprene] | > 90 | –
CNC(=O)Oc1ccccc1C(C)C [Isoprocarb] | – | CC50 at 24 h (AC50 (uM) modified / 1000, Tox21_110001=Tox21_301361, viability, 1 nM T3 present, 24 h): > 90 µM
CCCN(CCC)c1c([N+](=O)[O-])cc(C(C)C)cc1[N+](=O)[O-] [Isopropalin] | – | CC50 at 24 h (AC50 (uM) modified / 1000, Tox21_110001=Tox21_202228, viability, 1 nM T3 present, 24 h): 89.1 µM; CC50 at 24 h (AC50 (uM) modified / 1000, Tox21_110001=Tox21_300422, viability, 1 nM T3 present, 24 h): 45.3 µM

Structure (SMILES) | CC50 at 24 h (AC50 (uM) modified / 1000) [µM] | also measured
CC(C)[N+](C)(CCC(C(N)=O)(c1ccccc1)c1ccccc1)C(C)C [Isopropamide] | > 20 | –
CC(C)O [Isopropanol] | > 100 | –
C=C(C)OC(C)=O [Isopropenyl acetate] | > 90 | –
CC(=O)OC(C)C [Isopropyl acetate] | > 90 | –
CC(C)OC(C)C [Isopropyl ether] | > 100 | –
CC(C)OC=O [Isopropyl formate] | > 100 | –
CC(C)OCC1CO1 (centres unmarked) [Isopropyl glycidyl ether] | > 90 | –
CC(C)S [Isopropyl mercaptan] | > 90 | –
C=C(C)C(=O)OC(C)C [Isopropyl methacrylate] | > 90 | –
CC(C)OS(C)(=O)=O [Isopropyl methanesulfonate] | – | CC50 at 24 h (AC50 (uM) modified / 1000, Tox21_110001=Tox21_200855, viability, 1 nM T3 present, 24 h): > 90 µM
CC(C)C(=O)c1ccccc1 [Isopropyl phenyl ketone] | > 90 | –
CC(C)OC(=O)Cc1ccccc1 [Isopropyl phenylacetate] | – | CC50 at 24 h (AC50 (uM) modified / 1000, Tox21_110001=Tox21_201145, viability, 1 nM T3 present, 24 h): > 90 µM
Cc1ccc(C(C)C)cc1O [Isopropyl-o-cresol] | > 90 | –
CC(C)NCC(O)c1ccc(O)c(O)c1 (centres unmarked) [Isoproterenol hydrochloride] | > 90 | –
CC(C)c1ccc(NC(=O)N(C)C)cc1 [Isoproturon] | > 90 | –
C=C(C)[C@@H]1CC[C@@H](C)C[C@H]1O [Isopulegol] | > 90 | –
c1ccc2cnccc2c1 [Isoquinoline] | > 90 | –
C/C=C/c1ccc2c(c1)OCO2 [Isosafrole] | – | CC50 at 24 h (AC50 (uM) modified / 1000, Tox21_110001=Tox21_201783, viability, 1 nM T3 present, 24 h): > 90 µM
O=[N+]([O-])O[C@@H]1CO[C@H]2[C@@H]1OC[C@@H]2O [Isosorbide 5-mononitrate] | > 50 | –
O[C@@H]1CO[C@H]2[C@@H]1OC[C@@H]2O [Isosorbide] | > 50 | –
CC(CN1c2ccccc2Sc2cccnc21)N(C)C (centres unmarked) [Isothipendyl hydrochloride] | 28 | –

Structure (SMILES) | CC50 at 24 h (AC50 (uM) modified / 1000) [µM] | also measured
CC(C)CC#N [Isovaleronitrile] | > 90 | –
CCC(C)(CC)c1cc(NC(=O)c2c(OC)cccc2OC)on1 [Isoxaben] | > 90 | –
CCOC(=O)C1=NOC(c2ccccc2)(c2ccccc2)C1 [Isoxadifen-ethyl] | > 90 | –
CS(=O)(=O)c1cc(C(F)(F)F)ccc1C(=O)c1cnoc1C1CC1 [Isoxaflutole] | > 90 | –
CCOP(=S)(OCC)Oc1cc(-c2ccccc2)on1 [Isoxathion] | – | CC50 at 24 h (AC50 (uM) modified / 1000, Tox21_110001=Tox21_302209, viability, 1 nM T3 present, 24 h): > 90 µM
Cc1cc(NC(=O)C2=C(O)c3ccccc3S(=O)(=O)N2C)no1 [Isoxicam] | > 50 | –
CC(COc1ccccc1)NC(C)C(O)c1ccc(O)cc1 (centres unmarked) [Isoxsuprine hydrochloride] | > 20 | –
COC(=O)C1=C(C)NC(C)=C(C(=O)OC(C)C)C1c1cccc2nonc12 (centres unmarked) [Isradipine] | > 20 | –
Cc1nnc2n1-c1sc(CCc3ccc(CC(C)C)cc3)cc1C(c1ccccc1Cl)=NC2C (centres unmarked) [Israpafant] | 13.6 | –
CN1[C@@H]2CC[C@H]1CC(NC(=O)n1c(=O)[nH]c3ccccc31)C2 (some centres unmarked) [Itasetron] | > 50 | –
COc1ccc(C(=O)NCc2ccc(OCCN(C)C)cc2)cc1OC [Itopride hydrochloride] | > 50 | –
Cc1cc(C)c(NC(=O)C[C@H](CC(=O)O)c2cccc3ccccc23)c(C(=O)N2CCC3(CCCC3)CC2)c1 [Itriglumide sodium] | 26.9 | –
COc1cc2c(cc1OC)CC(=O)N(CCCN(C)C[C@H]1Cc3cc(OC)c(OC)cc31)CC2 [Ivabradine hydrochloride] | > 50 | –
CC[C@H](C)[C@H]1O[C@]2(CC[C@@H]1C)C[C@@H]1C[C@@H](C/C=C(\C)[C@@H](O[C@H]3C[C@H](OC)[C@@H](O[C@H]4C[C@H](OC)[C@@H](O)[C@H](C)O4)[C@H](C)O3)[C@@H](C)/C=C/C=C3\CO[C@@H]4[C@H](O)C(C)=C[C@@H](C(=O)O1)[C@]34O)O2 [Ivermectin B1a] | 2.85 | –
CC/C=C\CC1=C(C)CCC1=O [Jasmone] | > 90 | –
CO[C@@H]1[C@@H](O[C@@H]2O[C@H](C)[C@@H](O[C@H]3C[C@@](C)(O)[C@@H](OC(=O)CC(C)C)[C@H](C)O3)[C@H](N(C)C)[C@H]2O)[C@@H](CC=O)C[C@@H](C)[C@@H](O)/C=C/C=C/C[C@@H](C)OC(=O)C[C@H]1OC(C)=O [Josamycin] | > 20 | –
CC1(C)[C@H](C(=O)OCc2coc(Cc3ccccc3)c2)[C@@H]1/C=C1\CCSC1=O [Kadethrin] | > 90 | –
C=C(C)[C@H]1CN[C@H](C(=O)O)[C@H]1CC(=O)O [Kainic acid] | – | CC50 at 24 h (AC50 (uM) modified / 1000, Tox21_110001=Tox21_110905, viability, 1 nM T3 present, 24 h): > 50 µM
